In general, inhibition refers to the change of the read-out against control, counted positive when it falls.

Structures are written as SMILES.

Experiment [1] concerns ulcerogenic properties of indomethacin. Description: Protection against indomethacin-induced ulcers in rats. It counts as in vivo. As to conditions: indomethacin 20 mg./kg. s.c. How it is done:
The compounds of this invention provide protection against the ulcerogenic properties of indomethacin. This assay was carried out in the following manner.
Rats were starved for 48 hours (water was given ad libitum). Indomethacin (20 mg./kg. of body weight) was administered by the subutaneous route and one-half the dose of the test compound was administered by gavage at the same time. After three hours, the second half of the test compound was administered also by Gavage. Five hours after the administration of indomethacin the animals were decapitated and the stomachs removed. The stomachs were washed with distilled water, blotted on gauze, cut along the larger curvature, and the contents rinsed with distilled water. The stomachs were spread out, pinned on a cork and visualized under magnifying glass for ulcers. The criteria for scoring of ulcers was as previously reported. [Abdel-Galil et al. Brit. J. Pharmac. Chemotherapy 33:1-14 (1968)]. […]
Control animals treated with indomethacin but not test compound consistently give scores of about 3.0-3.5. Control animals treated with neither indomethacin nor test compound give scores of about 0.5-0.8. Compounds producing a score of 2.5 or lower are considered to be active.

A further experiment concerns gastric acid secretion. Description: Gastric acid secretion inhibition, modified Shay rat procedure. The note with it: pylorus-ligated rats, intraduodenal dose 100 mg./kg., 3 hours, 20% or more active, read-out: Percent Inhibition of gastric acid secretion. The class given is in vivo, rats (male, CFE strain). How it is done:
The novel compounds of the present invention are also effective inhibitors of gastric acid secretion and of ulcer development in experimental animals, and thus are potentially valuable as agents for the control of gastric acid secretion and of gastric erosion and as anti-ulcer agents. Gastric acid secretion inhibitory action is usually measured by the "Shay rat" procedure^(1,2) with some modifications as follows.
The rats (male, CFE strain), were starved for 48 hours (water was given ad libitum) to permit evacuation of stomach contents. On the morning of the experiment, under ether anesthesia, the abdominal region was shaved and a midline incision (1-11/2") was made with a scapel. […]
The abdominal cavity was exposed by cutting with scissors and the esophagus close to the stomach was clamped off with a hemostat, the stomach was removed by cutting above the hemostat (the esophagus was cut) and between the two sutures. […] The supernatant was collected, volume measured and recorded, 2 drops of a phenolphthalein indicator (1% in 95% ethanol) were added and the solution was titrated with 0.02 N NaOH (or with 0.04 N NaOH when large volumes of stomach contents were encountered) to pH 8.4 (because of usual coloring of the stomach contents, phenolphthalein was only used to permit visual indication that the end point was near) and the amount of acid present was calculated. […]

Where [2] appears, read: total oral dose 25 mg./kg. in two halves by gavage, scale 0 normal stomach to 4 many ulcers, mainly large, 2.5 or lower active, control 3.2.

In the case of `CCCCC(CC)C(O)/C=C/C1CCC(=O)C1CCCCCCC(=O)O` (stereo not drawn) [9-oxo-15-hydroxy-16-ethyl-13-trans-prostenoic acid], the “Score Treated (ulcer score)” value in experiment [1] (setting [2]) is 1.7.

`CCCCCC(O)/C=C/C1CCC(=O)C1CCCCC(C)(C)CC(=O)O` (stereo not drawn) [9-oxo-15-hydroxy-3,3-dimethyl-13-trans-prostenoic acid]: the inhibition at 100 mg/kg in the experiment on gastric acid secretion was determined as 51%. For the molecule `CCCCCC(O)/C=C/[C@H]1CCC(=O)[C@]1(C)CCCCCCC(=O)O` (relative stereo) [9-oxo-8β-methyl-15-hydroxy-13-trans-prostenoic acid], the “Score Treated (ulcer score)” value in experiment [1] (total oral dose 12.5 mg./kg. in two halves by gavage, scale 0-4, 2.5 or lower active, control 3.0) is reported as 2.0. Turning to `CCCCC[C@@H](O)/C=C/[C@H]1CCC(=O)[C@@H]1CCCCSCC(=O)O` (relative stereo) [9-oxo-3-thin-15-epi-hydroxy-13-trans-prostenoic acid], the “Score Treated (ulcer score)” value in experiment [1] (setting [2]) came to 2.3. Consider `CCCCCC(O)/C=C\C1CCC(=O)C1CCCCCCC(=O)O` (stereo not drawn) [9-oxo-15-hydroxy-13-cis-prostenoic acid], for which, in experiment [1] (total oral dose 100 mg./kg. in two halves by gavage, scale 0-4, 2.5 or lower active, control 3.0), the “Score Treated (ulcer score)” value is listed as 1.3. In the case of `CCCCCC(O)/C=C/C1CCC(=O)C1CCCCCC(CC)C(=O)O` (stereo not drawn) [9-oxo-15-hydroxy-2-ethyl-13-trans-prostenoic acid], in experiment [1] (total oral dose 50 mg./kg. in two halves by gavage, scale 0-4, 2.5 or lower active, control 3.0), the “Score Treated (ulcer score)” value came out at 2.2. Turning to `CCCCC[C@H](O)/C=C/[C@H]1CCC(=O)[C@@H]1CCCCSCC(=O)O` (relative stereo) [9-oxo-3-thia-15-hydroxy-13-trans-prostenoic acid], the “Score Treated (ulcer score)” value in experiment [1] (setting [2]) amounted to 1.8.

The record behind these values is US4439365A, “Novel hydroxy substituted prostanoic acids, esters, congeners, intermediates and process” (American Cyanamid Company, priority 1979, dated 1984).
